Measured values as given in patent publication US20080200404A1, “Novel Antimalarial 9A-Carbamoyl-Aminoalkyl and 9A-Thiocarbamoyl-Aminoalkyl Azalides” (priority 2005, published 2008).
In brackets after ≈: the same amount, converted by molar mass. Like-named read-outs stand apart in the source and are kept apart here.

Experiments:
Type in all cases: cell-based
[1] = tested on: Plasmodium falciparum clone CDC/Sierra Leone I (D-6); assay: In vitro antimalarial [3H]-hypoxanthine incorporation serial dilution assay, D6; details: P. falciparum D6, 72 hours exposure; for IC50: Plasmodium falciparum, D6, 72 h
Procedure, shortened: (§1)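 IC50 came from logistic fitting of eleven two-fold compound dilutions, read as [3H]-hypoxanthine uptake into parasite DNA relative to untreated infected wells after 72 h. Parasites were grown in A+ human erythrocytes (6%) in RPMI-1640 with plasma or ALBUMAX at 37° C, 5% CO2, 5% O2.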

[2] = tested on: Plasmodium falciparum clone CDC/Indochina III (W-2); assay: In vitro antimalarial [3H]-hypoxanthine incorporation serial dilution assay, W2; details: P. falciparum W2, 72 hours exposure; for IC50: Plasmodium falciparum
Procedure, shortened: as §1

[3] = tested on: Plasmodium falciparum TM91C235; assay: In vitro antimalarial [3H]-hypoxanthine incorporation assay, TM91C235; details: P. falciparum TM91C235 (multiple drug resistant isolate), 72 hours exposure; for IC50: Plasmodium falciparum
Procedure, shortened: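 Growth was read by [3H]-hypoxanthine incorporation after 72 h total incubation, as CPM normalized to the mean of untreated infected controls. Erythrocytic-stage TM91C235 (0.4% parasitemia, 1% hematocrit, ALBUMAX medium without folate or PABA, 5% O2/5% CO2, 37° C) was first exposed 48 h to compound at three levels, 25–25,000 ng/ml, in duplicate.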

SMILES	IC50 ([1]; read-out: IC50 D6)	IC50 [2]	IC50 [3]	IC50 D6 [1]	IC50 W2 [2]	IC50 TM91C235 [3]	IC50 ([1]; compared with azithromycin, read-out: IC50 D6 (class symbol))
CC[C@H]1OC(=O)[C@H](C)[C@@H](O[C@H]2C[C@@](C)(OC)[C@@H](O)[C@H](C)O2)[C@H](C)[C@@H](O[C@@H]2O[C@H](C)C[C@H](N(C)C)[C@H]2O)[C@](C)(O)C[C@@H](C)CN(CCCNC(=S)Nc2ccc(-n3cccn3)cc2)[C@H](C)[C@@H](O)[C@]1(C)O.O=CO [Example 140]	0.166 µg/mL	0.114 µg/mL	0.105 µg/mL				
CCC1OC(=O)C(C)C(OC2CC(C)(OC)C(O)C(C)O2)C(C)C(OC2OC(C)CC(N(C)C)C2O)C(C)(O)CC(C)CN(CCNC(=O)NCc2ccccc2)C(C)C(O)C1(C)O (stereo not drawn) [Example 3, 9-Deoxo-9-dihydro-9a-(N′-benzylcarbamoyl-β-aminoethyl)-9a-aza-9a-homoerythromycin A]				292.0 ng/mL (≈ 0.32 µM)	261.7 ng/mL (≈ 0.287 µM)	154.7 ng/mL (≈ 0.17 µM)	
CC[C@H]1OC(=O)[C@H](C)[C@@H](O[C@H]2C[C@@](C)(OC)[C@@H](O)[C@H](C)O2)[C@H](C)[C@@H](O[C@@H]2O[C@H](C)C[C@H](N(C)C)[C@H]2O)[C@](C)(O)C[C@@H](C)CN(CCCNC(=O)Nc2ccc(C(C)=O)cc2)[C@H](C)[C@@H](O)[C@]1(C)O.O=CO [Example 65]		0.708 µg/mL	0.398 µg/mL				> 0.797 µg/mL
CCOC(=O)c1ccc(NC(=S)NCCCN2C[C@H](C)C[C@@](C)(O)[C@H](O[C@@H]3O[C@H](C)C[C@H](N(C)C)[C@H]3O)[C@@H](C)[C@H](O[C@H]3C[C@@](C)(OC)[C@@H](O)[C@H](C)O3)[C@@H](C)C(=O)O[C@H](CC)[C@@](C)(O)[C@H](O)[C@H]2C)cc1 [Example 112]	0.121 µg/mL (≈ 0.121 µM)	0.0709 µg/mL (≈ 0.0709 µM)	0.107 µg/mL (≈ 0.107 µM)				
CC[C@H]1OC(=O)[C@H](C)[C@@H](O[C@H]2C[C@@](C)(OC)[C@@H](O)[C@H](C)O2)[C@H](C)[C@@H](O[C@@H]2O[C@H](C)C[C@H](N(C)C)[C@H]2O)[C@](C)(O)C[C@@H](C)CN(CCCNC(=O)Nc2cc(C)oc2C(F)(F)F)[C@H](C)[C@@H](O)[C@]1(C)O.O=CO [Example 88]	0.371 µg/mL	0.319 µg/mL	0.33 µg/mL				
CC[C@H]1OC(=O)[C@H](C)[C@@H](O[C@H]2C[C@@](C)(OC)[C@@H](O)[C@H](C)O2)[C@H](C)[C@@H](O[C@@H]2O[C@H](C)C[C@H](N(C)C)[C@H]2O)[C@](C)(O)C[C@@H](C)CN(CCCNC(=S)NCC(C)C)[C@H](C)[C@@H](O)[C@]1(C)O.O=CO [Example 149]	0.657 µg/mL	0.472 µg/mL	0.414 µg/mL				
CC[C@H]1OC(=O)[C@H](C)[C@@H](O[C@H]2C[C@@](C)(OC)[C@@H](O)[C@H](C)O2)[C@H](C)[C@@H](O[C@@H]2O[C@H](C)C[C@H](N(C)C)[C@H]2O)[C@](C)(O)C[C@@H](C)CN(CCCNC(=S)Nc2ccc([N+](=O)[O-])cc2)[C@H](C)[C@@H](O)[C@]1(C)O [Example 105]	0.0184 µg/mL (≈ 0.0189 µM)	0.0201 µg/mL (≈ 0.0207 µM)	0.0237 µg/mL (≈ 0.0244 µM)				
CC[C@H]1OC(=O)[C@H](C)[C@@H](O[C@H]2C[C@@](C)(OC)[C@@H](O)[C@H](C)O2)[C@H](C)[C@@H](O[C@@H]2O[C@H](C)C[C@H](N(C)C)[C@H]2O)[C@](C)(O)C[C@@H](C)CN(CCCN(CCC(N)=O)C(=S)NCCc2ccccc2)[C@H](C)[C@@H](O)[C@]1(C)O [Example 166, 9-Deoxo-9-dihydro-9a-{N′-(β-amidoethyl)-N′-[β-(phenylethyl)thiocarbamoyl]-γ-aminopropyl}-9a-aza-9a-homoerythromycin A]	0.458 µg/mL (≈ 0.446 µM)	0.23 µg/mL (≈ 0.224 µM)	0.161 µg/mL (≈ 0.157 µM)				
CCC1OC(=O)C(C)C(OC2CC(C)(OC)C(O)C(C)O2)C(C)C(OC2OC(C)CC(N(C)C)C2O)C(C)(O)CC(C)CN(CCNC(=O)Nc2cccc3ccccc23)C(C)C(O)C1(C)O (stereo not drawn) [Example 2, 9-Deoxo-9-dihydro-9a-[N′-(1-naphtyl)carbamoyl-β-aminoethyl]-9a-aza-9a-homoerythromycin A]				134.4 ng/mL (≈ 0.142 µM)	74.4 ng/mL (≈ 0.0785 µM)	39.9 ng/mL (≈ 0.0421 µM)	
CCNC(=O)NCCN1C[C@H](C)C[C@@](C)(O)[C@H](O[C@@H]2O[C@H](C)C[C@H](N(C)C)[C@H]2O)[C@@H](C)[C@H](O[C@H]2C[C@@](C)(OC)[C@@H](O)[C@H](C)O2)[C@@H](C)C(=O)O[C@H](CC)[C@@](C)(O)[C@H](O)[C@H]1C [Example 158, 9-Deoxo-9-dihydro-9a-[N′-(ethyl)carbamoyl-β-amino-ethyl]-9a-aza-9a-homoerythromycin A]	0.167 µg/mL (≈ 0.197 µM)	0.405 µg/mL (≈ 0.476 µM)	0.103 µg/mL (≈ 0.121 µM)				
CC[C@H]1OC(=O)[C@H](C)[C@@H](O[C@H]2C[C@@](C)(OC)[C@@H](O)[C@H](C)O2)[C@H](C)[C@@H](O[C@@H]2O[C@H](C)C[C@H](N(C)C)[C@H]2O)[C@](C)(O)C[C@@H](C)CN(CCCNC(=S)Nc2ccsc2C(=O)OC)[C@H](C)[C@@H](O)[C@]1(C)O.O=CO [Example 147]	0.469 µg/mL	0.389 µg/mL	0.343 µg/mL				
